# From patent publication US11912755B2, “Endostatin fragments and variants for use in treating fibrosis” (iBio, Inc., priority 2015, dated 2024)
# Entries after “also recorded” stand apart in the source; their conditions may differ. Ends that are not written are not given here.
# How the values were obtained:
# MMP-2 = experiment: Gelatin zymography of MMP-2 in primary human lung fibroblasts; format: cell-based; conditions: for MMP-2 activity: E-4 following TGF-β
# Source text: FIG. 14A-14B. FIG. 14A: E4 reduces fibrosis in vitro by inducing MMP-2 activity in primary human lung fibroblasts, thus resulting in increased degradation of collagen and other matrix proteins. […] Lane 1: Vehicle (DMSO); Lane 2: E-4; Lane 3: TGF-β; Lane 4: TGF-β followed by E4. FIG. 14B: Digital image showing that both total and active MMP-2 levels are increased in cells treated with TGF-β and E-4.
# MMP-1 = experiment: Genes regulated by E4: MMP-1; format: cell-based, human; conditions: HuF-T; RT-qPCR, protein expression levels, zymography, MMP-1 activity assay
# Description: Several experiments have been performed to identify the mechanisms by which E4 exerts its anti-fibrotic activity. Real-time quantitative PCR (qPCR)-based arrays were performed on RNA extracted from primary human lung fibroblasts or mouse lung tissue stimulated with various fibrotic triggers in the absence and presence of E4 treatment in order to identify genes influenced by the endostatin peptide.
# The arrays identified several genes that have been previously implicated in fibrosis to be influenced by E4 treatment. These genes included connective tissue growth factor (CTGF), insulin-like growth factor binding protein (IGFBP)-3, matrix metalloproteases (MMP)-1 and MMP-3, urokinase plasminogen activator (uPA), plasminogen activator inhibitor (PAI)-1, and hepatocyte growth factor (HGF) with levels either decreased or increased in the presence of E4 as shown in TABLE 5.
# HUVECs = experiment: Tubular formation assay in MATRIGEL; format: cell-based, human; conditions: 50 nM, 24 hours
# Description: Tubular formation assay. The ability of endostatin peptide to inhibit angiogenesis was examined in tubular formation assay using MATRIGEL® culture. Human umbilical vein endothelial cells (HUVECs) were maintained in endothelial cell basal medium-2 (EBM-2; Clonetics, San Diego, CA) supplemented with EBM-2 MV SINGLEQUOTS®. HUVECs (5×10^4) were cultured in duplicate on 24-well MATRIGEL® plates (BD Biosciences, San Diego, CA) alone, or in the presence of rE or E4 peptide (50 nM) in EBM-2 at 37° C. DMSO was used as vehicle control. After 24 hours, images were captured using a […] microscope. The degree of cord formation was quantified by measuring the area occupied by tubes in 6 random fields per well. Three independent experiments were performed.
# [1] = system: human primary skin fibroblasts; experiment: Western blot of ECM production in primary skin fibroblasts; format: cell-based; conditions: dermal fibroblasts of healthy controls, SSc or morphea patients
# Description: Primary Fibroblast Culture. Human primary lung and skin fibroblasts were cultured. The explanted lungs of normal organ donors, patients with SSc or IPF, and clinically involved skin of SSc patients, a morphea patient and healthy donors were used for primary fibroblast culture. Approximately 2-cm pieces of peripheral lung and skin were minced and fibroblasts were cultured in Dulbecco's modified Eagle's medium (DMEM; Mediatech, Herndon, Va.) supplemented with 10% FBS, penicillin, streptomycin, and anti-mycotic agent, as previously described (Feghali et al., Arthritis Rheum 1999; 42:1451-7). All the cells were used between passages 3-6.
# Western Blot Analysis. Cellular lysates were obtained from cultured fibroblasts as previously described (Pilewski et al., Am J Pathol 2005; 166:399-407). […] Cellular lysates were analyzed by Western blot. Signals were detected following incubation with horseradish peroxidase-conjugated secondary antibody and chemiluminescence (Perkin Elmer Life Sciences, Inc., Boston, Mass.). The intensity of individual bands with expected molecular sizes was semi-quantitatively analyzed using the image/J® software available at on the Internet (/rsb.info.nih.gov/ij/index.html), and normalized to individual GAPDH intensity.
# lysyl oxidase (LOX) = experiment: LOX Western blot in conditioned media of primary human lung fibroblasts; format: cell-based; conditions: TGF-β followed 30 min later by E4; 48 h
# Description: FIG. 13. E4 reduces fibrosis in vitro by blocking TGF-β-induced LOX production in primary human lung fibroblasts. Normal lung fibroblasts in passage 4 were treated with vehicle, E4, TGF-β, or TGF-β followed 30 min. later by E4. Media conditioned by the fibroblasts were analyzed using Western blot analysis after 48 hour. Lane 1: Vehicle (DMSO); Lane 2: E-4; Lane 3: TGF-β; Lane 4: TGF-β followed by E4. Similar results were obtained when LOX mRNA levels were examined by real-time PCR.
# E4-mediated reduction of LOX was detected also was detected in vitro. Normal lung fibroblasts in passage 4 were treated with vehicle, E4, TGF-β, or TGF-β followed 30 minutes later by E4 (FIG. 13). Media conditioned by the fibroblasts were analyzed using Western blot analysis after 48 hrs. […] Similar results were obtained when LOX mRNA levels were examined by real-time PCR.
# [2] = system: TGF-β-induced dermal fibrosis in mouse skin; conditions: single dose concurrently with TGF-β; cited from earlier work
# human skin explants = experiment: Ex vivo human skin assay, dermal thickness; format: cell-based
# Description: Ex vivo human skin assays. Human abdominal skin was obtained from corrective plastic surgery. As previously described (Yasuoka et al., The Open Rheumatol J 2008; 2:17-22), subcutaneous fat tissue was removed uniformly and skin tissue was cut into 1.5 cm×1.5 cm sections. The following were injected intradermally in a total volume of 100 μl 1×PBS: rE alone (1-10 μg/ml), endostatin peptides alone (10 μg/ml), rE or endostatin peptides (1-20 μg/ml) in combination with TGF-β (10 ng/ml), and TGF-β alone (10 ng/ml). In some experiments, human skin was first injected with TGF-β for 48 h followed by recombinant endostatin (rE) administration in the same injection site as TGF-β. Explants containing complete epidermal and dermal layers were cultured in an air liquid interface with the epidermal and keratin layers side up and exposed to air. The culture medium was replaced every other day. After 1 or 2 weeks, skin tissue corresponding to an area with 8-mm diameter centered around the injection site was harvested using disposable 8-mm ACUPUNCH® (Acuderm, Inc., Lauderdale, FL). Skin tissue was fixed in 10% formalin prior to embedding in paraffin.
# Measurement of Skin Dermal Thickness. Six μm sections of paraffin-embedded human and mouse skin tissues were stained with hematoxylin and eosin (H&E). In some experiments, sections were stained with Masson trichrome which identifies collagens. Images were taken on a Nikon Eclipse 800 microscope. The thickness of the dermis was measured in 6 random fields of each section using the image/J® software. Data are shown in arbitrary units.
substance,measurement,setting,value
"E4: SEQ ID NO: 21, amino acids 133-180 of human endostatin with a C-terminal amide (SYCETWRTEAPSATGQASSLLGGRLLGQSAASCHHAYIVLCIENSFMT-NH2; cysteine pairing not given here)",MMP-2 activity,MMP-2,induction and activation
same,MMP-2 activity,MMP-2; listed as E-4,increased MMP-2 activity
same,total and active MMP-2 levels,MMP-2; cells treated with TGF-β and E-4,increased
same,Effect of E4 peptide on MMP-1,MMP-1,induces; also recorded: Increase; also recorded: increased levels and activity
same,inhibition of tubular structure formation (anti-angiogenic activity),HUVECs,modest and low and minimal anti-angiogenic activity
same,TGF-β-induced ECM production,[1],reduced
same,TGF-β-induced LOX production,lysyl oxidase (LOX),significantly reduced; also recorded: blocking
same,skin thickness,[2],significantly decreased skin
same,"TGF-β-induced skin fibrosis, dose response",human skin explants; concentrations of 5-20 μg/ml with TGF-β,clearly ameliorated
same,"dermal thickness, baseline effect","human skin explants; injected alone, no TGF-β, rE 1, 5, 10 μg/ml, peptides 10 μg/ml",tendency towards reduction
same,development of fibrosis as measured by dermal thickness,"human skin explants; peptides 10 μg/ml with 10 ng/ml TGF-β, vs TGF-β alone",significantly abolished
